Test results from patent publication US5270339A, “Phenoxybenzene derivative” (Kanagafuchi Kagaku Kogyo Kabushiki Kaisha, priority 1991, dated 1993).

Key:
M1 receptor = biological target: T1, M1 receptor (Rattus norvegicus, UniProt P08482); assay: Receptor binding activity, inhibition of [3H]pyrenzepine binding to M1; settings: 1 nM [3H]pyrenzepine, rat's brain except cerebellum; for inhibition at 10 µM: 10 μM test compound; for inhibition at 1 µM: 1 μM test compound
T1 construct: rat's brain except for cerebellum was homogenized; from tissue; host or cells: rat brain except cerebellum, homogenate
T1 sequence (P08482 1-460): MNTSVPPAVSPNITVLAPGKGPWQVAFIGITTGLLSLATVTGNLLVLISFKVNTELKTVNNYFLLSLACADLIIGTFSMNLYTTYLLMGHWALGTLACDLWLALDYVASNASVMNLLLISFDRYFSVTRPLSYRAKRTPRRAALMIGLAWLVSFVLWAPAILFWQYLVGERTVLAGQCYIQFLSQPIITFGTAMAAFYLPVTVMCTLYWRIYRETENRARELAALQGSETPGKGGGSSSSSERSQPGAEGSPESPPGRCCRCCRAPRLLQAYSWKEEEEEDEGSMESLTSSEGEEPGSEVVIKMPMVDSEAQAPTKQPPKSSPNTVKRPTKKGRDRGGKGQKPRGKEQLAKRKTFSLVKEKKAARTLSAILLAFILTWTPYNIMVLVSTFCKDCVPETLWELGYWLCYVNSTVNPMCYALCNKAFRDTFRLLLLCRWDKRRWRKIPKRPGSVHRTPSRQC
Description: The binding ability of the test compounds to M1 was determined according to a modification of the method of Watson et al. (Life Sci., 32, 3001 (1983)). […] The mixture was incubated for 1 hour. The inhibition rate (%) of the binding with [3H]pyrenzepine was evaluated. The higher inhibition means the higher affinity of the test compound for M1 receptor.

[1] = system: experimental amnesia in mice induced by cycloheximide; assay: Anti-amnesic effect: passive avoidance task (step-through), cycloheximide-induced amnesia; type: in vivo, ddY male mice; settings: for Step-through latency: mean of group
Description: (§1) As experimental animals, Wistar male rats and ddY male mice were used for the tests after they were housed for a week under every 12 hours' dark-light cycle at room temperature of 24° to 26° C.
The effect on experimental amnesia in mice induced by cycloheximide was evaluated.
The experiment was carried out using an experimental apparatus of passive avoidance task for mice (made by Ohara-ika-sangyo K. K.) comprising a box divided into the two compartments of dark and light. That is, the dark compartment [a box having a reverse trapezoid cross section (height: 8 cm, base line: 5 cm, oblique line: 9.5 cm) and having the length of 14 cm] was shield from a light with a black plastic case and was floored with stainless grids for giving an electrical shock so that an electricity might be turned on a determined time after interception of a photobeam placed in the dark compartment. The light compartment made of transparent plastic (a box of the same shape as that of the dark compartment having the length of 16 cm, lightened from a location spaced 25 cm above by a 60 W electric lamp) was provided adjacent to the dark compartment. Between the two compartments, there was provided a circular entrance having the diameter of 3 cm with a guillotine door which could be opened and closed. By using the above-mentioned dark-light box, the experiment was carried out according to the following procedure.
A mouse (5 week-old) previously conditioned in the dark-light box was put in the light compartment and the guillotine door was opened. Three seconds after the mouse moved into the dark compartment and interrupted the photobeam, 0.3 mA electrical shock was given to limbs for 3 seconds from the floor grid (aquisition trial). Just after the mouse rushed into the light compartment, the door was shut and the […] in the light compartment was picked out to return to his home cage. After 24 hours, the mouse was placed again in the light compartment and the period from the opening of the guillotine door to the time the mouse completely entered the dark compartment was recorded maximally 300 seconds as a step-through latency (retention trial).
The amnesia was induced by subcutaneous injection of cycloheximide (120 mg/kg) dissolved in saline 10 minutes before the aquisition trial. As a control, the same amount of saline alone was administered. […]
A ratio of number of mice showing the step-through latency of more than 100 seconds in the group was defined as a ratio of memory for convenience's sake.
The step-through latency in Table 2 was the mean value for each treated group.

[2] = system: forced swimming test with rats (duration of immobility); assay: Antidepressant activity: forced swimming test using rats; type: in vivo, Wistar male rats; settings: p.o., 30 mg/kg
Description: as §1
That is, a rat (5 week-old) was placed into a glass cylinder having the inside diameter of 18 cm and the height of 40 cm which contained water (water temperature: 25° C.) up to its height of 15 cm. After 15 minutes, the rat was picked up followed by drying and then returned to his home cage. After 24 hours, the rat was again placed into the water in the same cylinder. The duration of immobility (the time rat kept motionless) was accumulatively measured with a stopwatch for five minutes (a five minutes' test). Each test compound was suspended in saline. The administration was carried out three times, at 24, 5 and 1 hour before the five minutes' test in case of an intraperitoneal administration or with only a single administration at 1 hour before the five minutes' test in case of an oral administration to examine the antidepressant effect.
The duration of immobility in Table 4 is the mean value for […] in each group. Suppression is expressed as a ratio in percentage of a reduction of the duration of immobility in the group administered with the test compound to that in the control group administered with saline alone.

[3] = Acute toxicity test, oral; type: in vivo, ddY male mice; settings: mouse, in vivo, ddY mice, 2 weeks observation
Description: (§2) With respect to the compounds 1 to 86 shown in Table 1 as test compounds, the acute toxicity was examined using ddY mice according to the following method.
(§3) In each group, six male ddY mice weighing 27 to 30 g were employed. The compounds 1 to 86 suspended in an aqueous solution of 0.5% sodium carboxymethylcellulose were administered orally in a volume of 0.1 ml/10 g body weight. […] The LD50 (mg/kg) values were estimated from the ratio of the number of dead mice to the number of mice used.

ddY mice = assay: Acute toxicity test, oral; type: in vivo, ddY male mice; settings: dose of 200 mg/kg, 2 weeks
Description: as §2, §3

[4] = Mus musculus, 3 mg/kg oral, mice with latency > 100 seconds, read-out: Ratio of memory

C(=C1CCNC1)c1cccc(Oc2ccccc2)c1 [Compound 64]
inhibition at 10 µM (M1 receptor): 90% | Step-through latency ([1]; 3 mg/kg oral): 150 s | responders at 3 mg/kg [1, 4]: 63% | Duration of immobility ([2]; 1 hour before test): 40 s | Suppression of duration of immobility ([2]; vs saline): 82%

CCCN1CCC(=Cc2cccc(Oc3ccccc3)c2)C1=O [Compound 11]
inhibition at 10 µM (M1 receptor): 58% | Step-through latency ([1]; 3 mg/kg oral): 182 s | responders at 3 mg/kg [1, 4]: 63% | LD50 at 336 h [3]: ≥ 500 mg/kg

CC(C)N1CCC(=Cc2cccc(Oc3ccccc3)c2)C1 [Compound 84]
inhibition at 1 µM (M1 receptor): 75% | Step-through latency ([1]; 1 mg/kg oral): 176 s | responders at 1 mg/kg ([1]; Mus musculus, 1 mg/kg oral, mice with latency > 100 seconds, read-out: Ratio of memory): 75% | LD50 at 336 h [3]: ≥ 500 mg/kg

CC(C)N1CCC(=Cc2cccc(Oc3ccccc3)c2)C1=O [Compound 16]
inhibition at 10 µM (M1 receptor): 75% | Step-through latency ([1]; 3 mg/kg oral): 176 s | responders at 3 mg/kg [1, 4]: 75% | LD50 at 336 h [3]: ≥ 500 mg/kg

C(=C1CCNC1)c1cccc(Oc2ccccc2)c1 [Compound 63]
LD50 at 336 h [3]: ≥ 200 mg/kg | Dead mice (ddY mice): no dead mice

CCN1CCC(=Cc2cccc(Oc3ccccc3)c2)C1=O [Compound 10]
inhibition at 10 µM (M1 receptor): 90% | Step-through latency ([1]; 3 mg/kg oral): 127 s | responders at 3 mg/kg [1, 4]: 80% | LD50 at 336 h [3]: ≥ 500 mg/kg

CCN1CCC(=Cc2cccc(Oc3ccccc3)c2)C1 [Compound 66]
inhibition at 1 µM (M1 receptor): 82% | Step-through latency ([1]; 0.3 mg/kg oral): 221 s | responders at 0.3 mg/kg ([1]; Mus musculus, 0.3 mg/kg oral, mice with latency > 100 seconds, read-out: Ratio of memory): 75% | LD50 at 336 h [3]: ≥ 500 mg/kg

CON1CCC(=Cc2cccc(Oc3ccccc3)c2)C1=O [Compound 22]
inhibition at 10 µM (M1 receptor): 63% | Step-through latency ([1]; 3 mg/kg oral): 100 s | responders at 3 mg/kg [1, 4]: 50% | LD50 at 336 h [3]: ≥ 500 mg/kg
